Article PMC7817688, “Identification of 3-chymotrypsin like protease (3CLPro) inhibitors as potential anti-SARS-CoV-2 agents” (Communications Biology, 2021)
Where “and” joins values, the source holds several entries; their conditions need not be identical. Equal entries are not always repeated.

Molecular target: SARS-CoV-2 3CLpro enzyme (Severe acute respiratory syndrome coronavirus 2, UniProt P0DTD1)
Experiment: biochemical
Conditions: for percent enzymatic activity, individual values / percent enzymatic activity, AVG: 50 µM drug, DMSO treated control = 100%, data of Figs. 2-4; for percent enzymatic activity, AVG: mean of 3 values; for inhibitory effect towards 3CLpro enzymatic activity (in words): in vitro enzymatic assay at the tested doses
[1] = dose-dependent study, 0.097656 uM, individual values
[2] = dose-dependent study, 0.195313 uM, individual values
[3] = dose-dependent study, 0.390625 uM, individual values
[4] = dose-dependent study, 0.78125 uM, individual values
[5] = dose-dependent study, 1.5625 uM, individual values
[6] = dose-dependent study, 3.125 uM, individual values
[7] = dose-dependent study, 6.25 uM, individual values
[8] = dose-dependent study, 12.5 uM, individual values
[9] = dose-dependent study, 100 uM, individual values
[10] = read-out: inhibition of 3CLpro enzymatic activity

COC(=O)N[C@H](C(=O)N1CCC[C@H]1C(=O)Nc1ccc([C@@H]2CC[C@@H](c3ccc(NC(=O)[C@@H]4CCCN4C(=O)[C@@H](NC(=O)OC)C(C)C)cc3)N2c2ccc(C(C)(C)C)cc2)cc1)C(C)C [Ombitasvir]
percent enzymatic activity, individual values: 28.8321% and 35.4015% and 42.7007% | percent enzymatic activity, AVG: 35.6448% | IC50 (IC50 for SARS-CoV-2 3CL protease, drugs 0 to 100 µM, 50 µM substrate, non-linear four variable fit): 75.5 µM | % activity [1]: 102.678% and 100.823% | activity at 0.097656 µM [1]: 106% | % activity [2]: 97.7299% and 97.8652% | activity at 0.195313 µM [2]: 106% | % activity [3]: 102.06% and 103.288% | activity at 0.390625 µM [3]: 112% | % activity [4]: 107.008% and 95.4001% | activity at 0.78125 µM [4]: 113% | % activity [5]: 102.06% and 100.823% | activity at 1.5625 µM [5]: 111% | % activity [6]: 111.957% and 103.781% | activity at 3.125 µM [6]: 113% | % activity [7]: 105.153% and 107.726% | activity at 6.25 µM [7]: 115% | % activity [8]: 107.627% and 104.767% | activity at 12.5 µM [8]: 112% | % activity (dose-dependent study, 25 uM, individual values): 102.302% and 73.6067% and 103.288% | % activity (dose-dependent study, 50 uM, individual values): 98.3582% and 67.4213% and 91.9489% | % activity [9]: 61.2358% and 60.8884% | activity at 100 µM [9]: 64.3% | inhibitory effect towards 3CLpro enzymatic activity (in words): partial inhibitory effect | inhibition at 50 µM [10]: 65% | inhibition at 100 µM [10]: 50%

NC[C@H]1O[C@H](O[C@H]2[C@H](O[C@@H]3O[C@H](CO)[C@@H](O)[C@H]3O)[C@@H](O)[C@H](N)C[C@@H]2N)[C@H](N)[C@@H](O)[C@@H]1O [Ribostamycin]
percent enzymatic activity, individual values: 96.7864% and 99.3003% | percent enzymatic activity, AVG: 98.4623%

CC(C)CN(C[C@@H](O)[C@H](Cc1ccccc1)NC(=O)O[C@H]1CO[C@H]2OCC[C@H]21)S(=O)(=O)c1ccc(N)cc1 [Darunavir]
percent enzymatic activity, individual values: 90.3226% and 93.0876% and 98.6175% | percent enzymatic activity, AVG: 94.0092%

CCC(C)n1ncn(-c2ccc(N3CCN(c4ccc(OCC5COC(Cn6cncn6)(c6ccc(Cl)cc6Cl)O5)cc4)CC3)cc2)c1=O (centres unmarked) [Itraconazole]
percent enzymatic activity, individual values: 81.4131% and 90.2946% and 93.255% | percent enzymatic activity, AVG: 88.3209%

CC(C)(C)[C@@H]1NC(=O)O[C@@H]2CCC[C@H]2OC/C=C/C(F)(F)c2nc3ccccc3nc2O[C@@H]2C[C@@H](C(=O)N[C@]3(C(=O)NS(=O)(=O)C4(C)CC4)C[C@H]3C(F)F)N(C2)C1=O [Glecaprevir]
percent enzymatic activity, individual values: 92.7616% and 89.3077% and 94.7353% | percent enzymatic activity, AVG: 92.2682%

COC(=O)N[C@H](C(=O)N[C@@H](Cc1ccccc1)[C@@H](O)CN(Cc1ccc(-c2ccccn2)cc1)NC(=O)[C@@H](NC(=O)OC)C(C)(C)C)C(C)(C)C [Atazanavir]
percent enzymatic activity, individual values: 84.3318% and 88.0184% and 91.2442% | percent enzymatic activity, AVG: 87.8648%

Cc1c(O)cccc1C(=O)N[C@@H](CSc1ccccc1)[C@H](O)CN1C[C@H]2CCCC[C@H]2C[C@H]1C(=O)NC(C)(C)C [Nelfinavir]
percent enzymatic activity, individual values (listed as Nilfinavir): 69.1244% and 72.3502% and 70.0461% | percent enzymatic activity, AVG: 70.5069%

CCOC(=O)c1ccc(OC(=O)CCCCCNC(=N)N)cc1 [Gabexate]
percent enzymatic activity, individual values: 88.0184% and 104.147% and 90.7834% | percent enzymatic activity, AVG: 94.3164%

CN(C)C(=O)COC(=O)Cc1ccc(OC(=O)c2ccc(NC(=N)N)cc2)cc1 [Camostat]
percent enzymatic activity, individual values: 94.4701% and 101.843% and 102.304% | percent enzymatic activity, AVG: 99.5392%

Nc1nc(NC2CC2)c2ncn([C@H]3C=C[C@@H](CO)C3)c2n1 [Abacavir]
percent enzymatic activity, individual values: 85.8927% and 88.8256% and 90.5015% (2×) | percent enzymatic activity, AVG: 88.4066%

CCC(CC)[C@H](NC(C)=O)[C@@H]1[C@H](O)[C@@H](C(=O)O)C[C@H]1N=C(N)N [Peramivir]
percent enzymatic activity, individual values: 99.7193% and 97.2053% and 109.775% | percent enzymatic activity, AVG: 102.233%

CC(C)c1nc(CN(C)C(=O)N[C@H](C(=O)N[C@@H](Cc2ccccc2)C[C@H](O)[C@H](Cc2ccccc2)NC(=O)OCc2cncs2)C(C)C)cs1 [Ritonavir]
percent enzymatic activity, individual values: 82.0276% and 87.5576% and 91.2442% | percent enzymatic activity, AVG: 86.9432% | inhibitory effect towards 3CLpro enzymatic activity (in words): did not exhibit any 3CLpro inhibitory activity

CCN(CCO)CCCC(C)Nc1ccnc2cc(Cl)ccc12 (centres unmarked) [Hydroxychloroquine]
percent enzymatic activity, individual values (listed as Hydrochloroquine): 83.3868% and 88.8143% and 90.788% | percent enzymatic activity, AVG: 87.663%

CCC(CC)COC(=O)[C@H](C)N[P@](=O)(OC[C@H]1O[C@@](C#N)(c2ccc3c(N)ncnn23)[C@H](O)[C@@H]1O)Oc1ccccc1 [Remdesivir]
percent enzymatic activity, individual values: 83.5766% and 41.9708% and 50.7299% | percent enzymatic activity, AVG: 58.7591%

CC(C)(C)NC(=O)[C@@H]1C[C@@H]2CCCC[C@@H]2CN1C[C@@H](O)[C@H](Cc1ccccc1)NC(=O)[C@H](CC(N)=O)NC(=O)c1ccc2ccccc2n1 [Saquinavir]
percent enzymatic activity, individual values: 65.8986% and 67.2811% and 76.0369% | percent enzymatic activity, AVG: 69.7389%

CCN(CC)CCCC(C)Nc1ccnc2cc(Cl)ccc12 (centres unmarked) [Chloroquine]
percent enzymatic activity, individual values (listed as Chloroquine Phosphate): 103.986% and 93.4637% and 103.367% | percent enzymatic activity, AVG: 100.272%

CCOC(=O)C1=C[C@@H](OC(CC)CC)[C@H](NC(C)=O)[C@@H](N)C1 [Oseltamvir Phosphate]
percent enzymatic activity, individual values: 105.843% and 84.7982% and 96.5585% | percent enzymatic activity, AVG: 95.7333%

CC[C@@H]([C@H](C)O)n1ncn(-c2ccc(N3CCN(c4ccc(OC[C@@H]5CO[C@@](Cn6cncn6)(c6ccc(F)cc6F)C5)cc4)CC3)cc2)c1=O [Posaconazole]
percent enzymatic activity, individual values: 84.6282% and 81.1692% | percent enzymatic activity, AVG: 83.4752%

CC(C)(C)OC(=O)N[C@H]1CCCCC/C=C\[C@@H]2C[C@@]2(C(=O)NS(=O)(=O)C2CC2)NC(=O)[C@@H]2C[C@@H](OC(=O)N3Cc4cccc(F)c4C3)CN2C1=O [Danoprevir]
percent enzymatic activity, individual values: 70.073% and 72.9927% and 80.6569% | percent enzymatic activity, AVG: 74.5742%

CC(C)c1c(C(=O)Nc2ccccc2)c(-c2ccccc2)c(-c2ccc(F)cc2)n1CC[C@@H](O)C[C@@H](O)CC(=O)O [Atrovastatin]
percent enzymatic activity, individual values: 92.1569% and 107.843% and 99.0196% | percent enzymatic activity, AVG: 99.6732%
